“And” between values parts separate entries of the source, which are not always exact repeats. Equal values may be shown once. Read-outs that look alike come from different tables or passages of the source. Positions of bridges follow the written chain, without caps; N, C: chain ends. Residues, ends and D or L forms follow the SMILES beside them.
How the values were obtained:
[1] = test system: NaV1.7Advill knockout mice; test: Nocifensive behaviors after intraplantar injection, NaV1.7Advill mice; assay type: in vivo, mouse; conditions: i.pl. ExTxA 10 nM
Text: Tmem233^Cre animals were generated and genotyped as previously described, with a Kozak-Cre-pA cassette replacing the ATG start codon of the murine Tmem233 gene to produce a functional knockout in homozygous animals. NaV1.7^Advill mice lacking functional NaV1.7 in all sensory neurons were generated and genotyped as previously described[33] by crossing Advillin-Cre mice with floxed Scn9a animals in which loxP sites were inserted in introns flanking exons 14 and 15[34],[35]. NaV1.9^−/− mice and NaV1.8^Cre/Cre mice, in which Cre recombinase substitutes the translational start-site of NaV1.8, were generated and sequenced as previously described[34],[36],[37].
(§1) Nocifensive responses to intraplantar administration of ExTxA (5–10 nM) were assessed as previously described. In brief, ExTxA was diluted in sterile saline/0.1% BSA and administered by an intraplantar injection (40 μL) into a single hind paw of Tmem233^Cre/Cre, NaV1.7^Advill and wild-type littermate controls. Pain behaviors, consisting of paw licks or flinches, were counted from video recordings by a blinded investigator for up to 60 min following injection.

hNaV1.5 = test: Persistent current, HEK293-hNaV1.5/β1; assay type: cell-based, human; conditions: ExTxA 1 µM
hNaV1.4 = test: Persistent current, HEK293-hNaV1.4/β1; assay type: cell-based, human; conditions: ExTxA 1 µM
hNaV1.1 = test: Persistent current, HEK293-hNaV1.1/β1; assay type: cell-based, human; conditions: ExTxA 1 µM; individual cells
[2] = test system: NaV currents in ND7/23 cells; test: Persistent current, ND7/23 cells; assay type: cell-based; conditions: ExTxA 1 µM; individual cells
NaV1.7/TMEM233 = NaV1.7/TMEM233 (Homo sapiens, UniProt B4DJY2+Q15858); assay type: cell-based
Method: HEK293-NaV1.7 cells were transfected with TMEM233, CRELD1, LMAN2L, MMGT1, RNF121 and STT3B and co-transfected with five plasmids coding for the Glycosylphosphatidylinositol (GPI) complex (GPAA1, PIGK, PIGS, PIGU, PIGT) using Lipofectamine 2000. After 24 h, transfected cells were harvested and plated at a density of 10,000–15,000 cells per well on black-walled 384-well imaging plates. Plated cells were cultured for a further 24 h at 37 °C and 5% CO2. FLIPR (Fluorescent Imaging Plate Reader) Red membrane potential assay dye (Molecular Devices, California, USA) was diluted in physiological salt solution according to the manufacturer’s instructions (PSS, in mM: NaCl 140, glucose 11.5, HEPES 10, KCl 5.9, MgCl2 1.4, NaH2PO4 1.2, NaHCO3 5, CaCl2 1.8, pH 7.4). Growth medium was removed from the plate and replaced with 20 µL of FLIPR Red membrane potential assay dye per well and incubated in the dark at 37 °C for 60 min. […] Fluorescence responses to ExTxA were computed as the maximum change in fluorescence over baseline (ΔF/F0) using ScreenWorks (Molecular Devices, Version 5.1.2.94).

wild-type C57BL/6 mice = test: Nocifensive behaviors after intraplantar injection, wild-type mice; assay type: in vivo, mouse; conditions: wt
Method: as §1

hNaV1.3 = test: Persistent current, HEK293-hNaV1.3/β1; assay type: cell-based, human; conditions: ExTxA 1 µM
NaV1.9 = assay type: cell-based, mouse
NaV1.7/PRRT2 = NaV1.7/PRRT2 (Homo sapiens, UniProt Q15858+Q7Z6L0); assay type: cell-based
[3] = test system: DRG neurons from Tmem233Cre/Cre knockout mice; test: Calcium imaging, Tmem233Cre/Cre DRG neurons; assay type: cell-based, mouse
Method: DRG from all spinal levels were isolated from male and female mice (wild-type C57BL/6 J, Tmem233^Cre/Cre, NaV1.8^Cre/Cre, NaV1.9^−/− or littermate controls) as previously described[36],[38],[39]. For Ca^2+ imaging experiments, DRG neurons were dissociated following incubation with 1% collagenase type IV (Worthington, New Jersey, USA) for 1.5 h (37 °C, 5% CO2) and 2.5% trypsin (Sigma-Aldrich, Montana, USA) for 15 min and resuspended in Dulbecco’s modified Eagle’s medium (DMEM) (Sigma-Aldrich, New South Wales, Australia) supplemented with 10% fetal bovine serum (FBS) (Thermofisher, Massachusetts, USA) and penicillin/streptomycin (Thermofisher, Massachusetts, USA). Following plating in 96-well poly-D-lysine–coated culture plates, isolated neurons were incubated for 24 h at 37 °C with 5% CO2 prior to imaging.
Dissociated DRG neurons from Tmem233^Cre/Cre and C57BL/6 mice were plated on PDL-coated 96-well black-walled imaging plates and loaded with Fluo-4 AM calcium indicator (5 μM) (Invitrogen, Massachusetts, USA) for 1 h in culture medium. Cells were washed with Hanks’ balanced salt solution containing 20 mM HEPES and then transferred to the recording chamber of a Nikon Ti-E Deconvolution inverted microscope equipped with a Lumencor Spectra LED light source. Fluorescence images (excitation, 485 nm; emission, 521 nm) were acquired at 1 frame per second using a ×20 objective. Following the recording of baseline fluorescence (20 s), cells were consecutively exposed to buffer control (0.1% BSA, t = 30 s), ExTxA (10 nM, t = 60 s), and 30 mM KCl (30 mM, t = 210 s). […] Cells responding to buffer control were excluded from analysis.

[4] = best-fit value, log(agonist) vs. response -- variable slope (four parameters)

NaV1.7/PRRT2, sequence (Q7Z6L0 whole entry): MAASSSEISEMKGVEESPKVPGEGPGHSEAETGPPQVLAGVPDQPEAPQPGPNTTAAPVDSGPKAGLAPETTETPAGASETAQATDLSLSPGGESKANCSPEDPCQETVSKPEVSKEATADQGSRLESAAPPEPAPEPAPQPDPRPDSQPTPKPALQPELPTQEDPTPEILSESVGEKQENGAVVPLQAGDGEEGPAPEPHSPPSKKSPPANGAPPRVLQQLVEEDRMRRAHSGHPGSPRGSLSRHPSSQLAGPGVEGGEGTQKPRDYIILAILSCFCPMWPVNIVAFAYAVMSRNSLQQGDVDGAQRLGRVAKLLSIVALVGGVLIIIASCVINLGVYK
NaV1.7/PRRT2, sequence (Q07699 19-218, further chain): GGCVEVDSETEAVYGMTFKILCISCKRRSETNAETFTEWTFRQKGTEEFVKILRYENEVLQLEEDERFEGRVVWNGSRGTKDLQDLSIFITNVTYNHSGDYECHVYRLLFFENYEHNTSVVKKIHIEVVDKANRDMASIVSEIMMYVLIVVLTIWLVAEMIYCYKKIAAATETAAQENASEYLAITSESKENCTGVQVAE
NaV1.7/PRRT2, sequence (Q15858 whole entry): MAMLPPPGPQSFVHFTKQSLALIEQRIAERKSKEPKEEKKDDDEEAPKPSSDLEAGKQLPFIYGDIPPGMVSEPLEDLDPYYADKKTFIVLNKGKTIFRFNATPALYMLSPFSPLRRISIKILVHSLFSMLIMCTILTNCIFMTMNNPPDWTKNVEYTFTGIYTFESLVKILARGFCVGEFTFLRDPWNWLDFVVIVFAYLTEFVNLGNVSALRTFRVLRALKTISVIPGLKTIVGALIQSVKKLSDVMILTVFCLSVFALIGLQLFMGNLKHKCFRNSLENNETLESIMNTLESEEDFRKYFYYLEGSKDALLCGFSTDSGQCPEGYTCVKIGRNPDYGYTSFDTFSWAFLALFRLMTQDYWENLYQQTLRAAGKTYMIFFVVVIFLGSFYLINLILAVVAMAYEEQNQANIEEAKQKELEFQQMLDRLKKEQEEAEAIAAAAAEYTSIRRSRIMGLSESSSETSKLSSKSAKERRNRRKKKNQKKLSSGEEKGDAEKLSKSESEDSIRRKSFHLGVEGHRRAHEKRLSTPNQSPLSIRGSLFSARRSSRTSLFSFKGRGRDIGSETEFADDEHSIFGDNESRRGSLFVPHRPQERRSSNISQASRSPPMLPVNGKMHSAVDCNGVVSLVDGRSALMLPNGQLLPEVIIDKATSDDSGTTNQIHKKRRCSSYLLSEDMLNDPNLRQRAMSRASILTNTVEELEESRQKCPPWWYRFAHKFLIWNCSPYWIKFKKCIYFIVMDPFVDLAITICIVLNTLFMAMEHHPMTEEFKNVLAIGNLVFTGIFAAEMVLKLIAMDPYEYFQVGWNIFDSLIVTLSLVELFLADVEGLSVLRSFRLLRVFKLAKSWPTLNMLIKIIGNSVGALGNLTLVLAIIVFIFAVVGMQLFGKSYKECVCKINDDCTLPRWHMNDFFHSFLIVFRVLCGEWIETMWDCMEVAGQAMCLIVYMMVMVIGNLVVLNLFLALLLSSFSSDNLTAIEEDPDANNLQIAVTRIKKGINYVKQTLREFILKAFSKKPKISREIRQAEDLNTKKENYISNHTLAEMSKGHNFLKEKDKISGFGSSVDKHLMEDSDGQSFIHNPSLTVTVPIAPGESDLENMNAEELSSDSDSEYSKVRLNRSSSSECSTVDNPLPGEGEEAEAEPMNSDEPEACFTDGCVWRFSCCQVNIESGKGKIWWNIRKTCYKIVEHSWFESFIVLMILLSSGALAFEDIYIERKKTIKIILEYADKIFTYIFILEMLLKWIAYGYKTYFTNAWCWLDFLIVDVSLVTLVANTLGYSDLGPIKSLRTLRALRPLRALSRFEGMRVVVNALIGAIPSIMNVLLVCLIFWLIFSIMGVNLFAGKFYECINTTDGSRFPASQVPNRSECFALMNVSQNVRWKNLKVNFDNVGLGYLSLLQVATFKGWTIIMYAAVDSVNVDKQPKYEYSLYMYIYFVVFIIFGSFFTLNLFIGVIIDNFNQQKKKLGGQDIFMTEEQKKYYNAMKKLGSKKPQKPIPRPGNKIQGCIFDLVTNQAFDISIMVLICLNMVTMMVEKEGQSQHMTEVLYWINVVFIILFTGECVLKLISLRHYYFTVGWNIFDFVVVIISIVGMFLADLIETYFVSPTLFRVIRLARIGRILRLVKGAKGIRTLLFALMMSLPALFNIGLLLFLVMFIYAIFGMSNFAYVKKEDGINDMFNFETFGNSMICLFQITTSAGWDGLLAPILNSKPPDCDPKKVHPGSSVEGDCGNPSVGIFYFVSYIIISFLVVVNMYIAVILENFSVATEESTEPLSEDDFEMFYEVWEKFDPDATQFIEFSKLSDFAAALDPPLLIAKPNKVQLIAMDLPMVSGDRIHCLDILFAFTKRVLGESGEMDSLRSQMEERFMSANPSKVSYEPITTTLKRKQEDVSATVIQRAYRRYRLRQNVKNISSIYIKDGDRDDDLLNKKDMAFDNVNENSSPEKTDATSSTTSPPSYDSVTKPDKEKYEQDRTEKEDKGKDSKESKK

**Q.** For `CC[C@H](C)[C@@H]1NC(=O)[C@H](CCCNC(=N)N)NC(=O)[C@H](Cc2ccccc2)NC(=O)[C@H](CC(C)C)NC(=O)[C@H](CO)NC(=O)[C@@H]2CSSC[C@@H]3NC(=O)[C@H]([C@@H](C)O)NC(=O)[C@H](CSSC[C@H](NC(=O)[C@H](CCCNC(=N)N)NC(=O)[C@@H]4CCCN4C(=O)[C@@H](N)CC(C)C)C(=O)N[C@@H](CC(=O)O)C(=O)N[C@@H](CO)C(=O)N4CCC[C@H]4C(=O)N[C@@H](Cc4ccccc4)C(=O)N2)NC(=O)[C@H](CCCCN)NC(=O)[C@H](CC(=O)O)NC(=O)CNC(=O)[C@H](CSSC[C@@H](C(=O)N[C@H](C(=O)N2CCC[C@H]2C(=O)N[C@@H](CC(=O)O)C(=O)N[C@H](C(=O)O)C(C)C)C(C)C)NC(=O)[C@H](CC(C)C)NC(=O)CNC(=O)[C@H](Cc2ccccc2)NC(=O)[C@H]([C@@H](C)CC)NC(=O)[C@@H]2CCCN2C(=O)[C@H](CC(C)C)NC(=O)[C@@H]2CCCN2C(=O)[C@H](C(C)C)NC3=O)NC(=O)[C@H](CC(C)C)NC(=O)CNC1=O` [ExTxA, excelsatoxin A] (H-LPRCDSPFCSLFRIGLCGDKCTCVPLPIFGLCVPDV-OH; disulfide 4-21, 9-23, 17-32), which “Difference between means (B - A), wildtype minus Scn9a-/-” value [1] is on record?
**A.** 279.3 ± 22.82

**Q.** What about the “nocifensive responses in knockout mice” value [1] of the same compound?
**A.** abolished

**Q.** And the “cumulative flinches (60 min)” value ([1]; 40 μL, NaV1.7Advill, mean, n = 4)?
**A.** 40.0 ± 6.5 and 40

**Q.** What about the “cumulative flinches (60 min)” value ([1]; NaV1.7Advill (Scn9a-/-), individual animals) of the same compound?
**A.** 32 and 43 and 57 and 28

**Q.** And the “toxicity to TE-671 cells, ExTxA alone” value (TE-671 cells; ExTxA 1 µM)?
**A.** did not cause visible toxicity

**Q.** What about the “toxicity to TE-671 cells, with veratridine and ouabain” value (TE-671 cells; ExTxA 1 µM + veratridine 5 µM + ouabain 20 nM) of the same compound?
**A.** cell death

**Q.** And the “persistent current (I40 ms/Ipeak)” value (hNaV1.5; individual cells)?
**A.** 0.001512 and 0.003695 and 0.000623 and -0.00019 and 0.001997 and -0.00321 and -0.00096 and -7.2e-5 and 0.000901 and 0.000208 and 0.000397

**Q.** And the “Δ persistent current (I40 ms/Ipeak; buffer cf. ExTxA)” value (hNaV1.5; mean)?
**A.** 0.0004 ± 0.0005 and 0.0003926

**Q.** What about the “persistent current (I40 ms/Ipeak)” value (hNaV1.4; individual cells) of the same compound?
**A.** -0.00323 and 0.000561 and 0.001128 and 1.82e-5 and 3.19e-5 and 0.001575 and 0.001393 and -0.00031 and -0.00116

**Q.** What about the “Δ persistent current (I40 ms/Ipeak; buffer cf. ExTxA)” value (hNaV1.4; mean) of the same compound?
**A.** 7.89E-07 ± 0.0005 and 7.889e-7

**Q.** What about the “persistent current (I40 ms/Ipeak)” value (hNaV1.1) of the same compound?
**A.** 0.000881 and 0.001374 and 0.002237 and -0.03938 and -0.00046 and -0.00216 and -0.00201 and 0.01125 and 0.00618 and -0.00021 and -0.01358

**Q.** What about the “persistent current (I40 ms/Ipeak)” value [2] of the same compound?
**A.** 0.0148 and -0.04643 and -0.01725 and -0.02481 and 0.06313 and -0.01347 and 0.009823 and -0.02206 and -0.05173 and 0.0293 and -0.02358

**Q.** What about the DF/F (NaV1.7/TMEM233) of the same compound?
**A.** 0.3009 and 0.2755

**Q.** And the “ΔF/F in NaV1.7 HEK293” value (NaV1.7/TMEM233; ExTxA 1 µM, TMEM233, mean, n = 3)?
**A.** 0.29 ± 0.0075 and 0.2867

**Q.** What about the DF/F (NaV1.7/TMEM233; ExTxA 1 µM, TMEM233, replicate 3) of the same compound?
**A.** 0.2837

**Q.** What about the Bottom (NaV1.7/TMEM233; [4]) of the same compound?
**A.** 0.07296

**Q.** What about the HillSlope (NaV1.7/TMEM233; [4]) of the same compound?
**A.** 1.156

**Q.** What about the LogEC50 (NaV1.7/TMEM233; [4]) of the same compound?
**A.** -8.146

**Q.** And the Span (NaV1.7/TMEM233; [4])?
**A.** 0.6962

**Q.** And the Top (NaV1.7/TMEM233; [4])?
**A.** 0.7692

**Q.** What about the “ExTxA-sensitivity of NaV1.7-expressing HEK293 cells” value (NaV1.7/TMEM233; of all 10 gene hits) of the same compound?
**A.** only expression of TMEM233 imparted ExTxA-sensitivity to NaV1.7-expressing HEK293 cells

**Q.** And the “cumulative flinches (60 min)” value (wild-type C57BL/6 mice; i.pl. ExTxA 10 nM, 40 μL, mean, n = 4)?
**A.** 319.3 ± 21.9 and 319.3

**Q.** And the “cumulative flinches (60 min)” value (wild-type C57BL/6 mice; i.pl. ExTxA 10 nM, individual animals)?
**A.** 318 and 332 and 366 and 261

**Q.** What about the “ExTxA-induced pain behaviours (cumulative paw licks and flinches over 40 min)” value (wild-type C57BL/6 mice; i.pl. ExTxA 10 nM, mean ± SEM, n = 17) of the same compound?
**A.** 234.2 ± 27.7

**Q.** What about the “nocifensive behaviors, 0-40 min combined (Fig. 3g)” value (wild-type C57BL/6 mice; 0-40 min, individual animals, one line each (n = 17)) of the same compound?
**A.** 186 and 191 and 216 and 226 and 100 and 220 and 228 and 281 and 150 and 168 and 177 and 96 and 381 and 537 and 153

**Q.** What about the “nocifensive behaviors, 0-40 min combined, mean (Fig. 3g)” value (wild-type C57BL/6 mice; 0-40 min, mean, n = 17) of the same compound?
**A.** 234.2

**Q.** And the “persistent current (I40 ms/Ipeak)” value (hNaV1.3; individual cells)?
**A.** 0.0261 and 0.07967 and 0.01209 and 0.007119 and 0.06666 and 0.04746 and 0.006524 and 0.006085 and 0.07156 and 0.01737 and 0.02558 and -0.00907 and 0.002307 and 0.02027 (2×) and 0.01594 and 0.04935 and 0.06033 and 0.03164 and 0.000895 and 0.0334 and 0.008347 and 0.02877

**Q.** And the “Δ persistent current (I40 ms/Ipeak; buffer cf. ExTxA)” value (hNaV1.3; mean)?
**A.** 0.0265 ± 0.0049 and 0.02645

**Q.** And the “DRG NaV1.9 Δ persistent current (I90 ms/Ipeak)” value (NaV1.9)?
**A.** -0.057 ± 0.028

**Q.** What about the LogEC50 (NaV1.7/PRRT2; Nav1.7/PRRT2, 95% CI -6.892 to -6.214, Fig 4g) of the same compound?
**A.** -6.331

**Q.** What about the HillSlope (NaV1.7/PRRT2; Nav1.7/PRRT2, Fig 4g) of the same compound?
**A.** 0.9384

**Q.** What about the Top (NaV1.7/PRRT2; Nav1.7/PRRT2, best-fit, constraint Top < 1, Fig 4g) of the same compound?
**A.** 0.7711

**Q.** What about the “ExTxA-induced currents with PRRT2” value (NaV1.7/PRRT2; co-expression with NaV1.7) of the same compound?
**A.** resulted in ExTxA-induced persistent currents

**Q.** What about the “ExTxA-induced DRG Ca2+ responses” value ([3]; ExTxA 10 nM, Tmem233Cre KO, Fluo-4, >1.5-fold increase, mean ± SEM, n = 7 wells) of the same compound?
**A.** 22.33 ± 1.942 % neurons activated

**Q.** And the “calcium imaging response (Fig. 3f)” value ([3]; KO, individual values, one line each (n = 7))?
**A.** 24.6269 and 21.831 and 19.2118 and 28.0374 and 12.6582 and 26.1905

**Q.** And the “calcium imaging response (Fig. 3f), Mean” value ([3]; KO, mean, number of values 7, Std. Deviation 5.137, SEM 1.942)?
**A.** 22.33

**Q.** And the “calcium imaging response (Fig. 3f), Median” value ([3]; KO, median, number of values 7)?
**A.** 23.77

— article PMC10147923, “Pain-causing stinging nettle toxins target TMEM233 to modulate NaV1.7 function” (Nature Communications, 2023)
